What was measured:
Type in all cases: in vivo
mice = experiment: Toxicity after intraperitoneal injection of very high doses; details: 160 mg/kg body weight by intraperitoneal injection
rat hind-paw = experiment: Carrageenan-induced oedema of the rat hind-paw; details: male rats, 1000 mg/kg injected 2 hours and 1 hour before carrageenan; four hours after induction of the damage
Protocol: Injection of carrageenan into the subplanar surface of the rat hind-paw induces a tissue damage that results in pronounced oedema. The degree of oedema can be reproducibly quantified by measuring paw circumference.
Two groups of five male rats were injected 2 hours and 1 hour before injection of carrageenan with 1000 mg/kg D-myo-inositol-1.2.6-trisphosphate (IP₃) or Krebs ringer solution (control) respectively.
Measurement of the paw diameter was made at hourly intervals.

hamster cheek pouch = experiment: Vascular permeability and bleeding induced by histamine in the hamster cheek pouch; details: 80 min period
Protocol: Vascular permeability and bleeding induced by histamine in the hamster cheek pouch was determined in the presence of D-myo-inositol-1.2.6-trisphosphate (IP₃) compared to control. Male hamsters were fasted overnight and anaesthetised with sodium pentobarbitone. Infusion was performed through the jugular vein. Injection of histamine (2.7 mg/kg) was preceded by either saline (control) or IP₃ (5.0 mg/kg).

skin of the abdomen = experiment: Controlled burn damage in rats, albumin leakage measured with Evans Blue; details: n=10, 10 mg/kg injection 15 minutes after the burn, then infusion of 0.2 mg/min for 2 hours
Protocol: A controlled burn damage is induced in rats as a heat probe is applied to the skin of the abdomen with a constant pressure. The probe has a surface temperature of […] and is allowed to deliver a specific amount of energy until the temperature is lowered to 37°C. 15 minutes after the induction of the burn an injection of saline (control) or D-myo-inositol-1.2.6-trisphosphate (IP₃) was performed. After this first injection (10 mg/kg IP₃) an infusion of 0.2 mg/min IP₃ followed for 2 hours. 90 minutes after the damage Evans Blue is injected to the animals. This compound binds to albumin, which leaks into the damaged tissue. The amount of albumin leakage is then easily determined by measuring the intensity of colour of Evans Blue in different parts of the tissue. After another 30 minutes the animals are killed and the tissue damage is determined. […] Thus IP₃ is an protective substance against tissue damage caused by burns.

[1] = test system: shaved dorsal skin of rabbits; experiment: Local oedema formation in rabbit dorsal skin in response to mediators of increased microvascular permeability, Evans Blue; details: 50 mg/kg directly after injection of the mediators
Protocol: Local oedema formation is measured in the shaved dorsal skin of rabbits in response to mediators of increased microvascular permeability, such as histamine, bradykinin and platelet activating factor (PAF). When a vasodilator such as calcitonin gene-related peptide (CGRP) is administered together with the mediators the blood flow is increased and this system is established for testing compounds that reduces oedema formation.
Prior to injection of the different mediators Evans Blue is injected into the anaesthetized animals. The distribution of Evans Blue is a measurement of the tissue damage and oedema formation. Directly after injection of the mediators either saline (control) or 50 mg/kg of D-myo-inositol-1.2.6-trisphos phate (IP₃) are performed.
The results are shown below as per cent inhibition of IP₃ compared to control.

## O=P(O)(O)OC1[C@H](OP(=O)(O)O)[C@H](O)C(O)[C@H](O)[C@H]1OP(=O)(O)O (stereo partly drawn) [IP₃, D-myo-inositol-1.2.6-trisphosphate]
mice
  toxic effects: no toxic effects
Rat hind-paw
  reduces the oedema as compared to control: 40%
Hamster cheek pouch; inhibition of petechiae versus saline control, histamine 2.7 mg/kg, IP₃ 5.0 mg/kg
  % inhibition: 88%
Hamster cheek pouch; male hamsters, histamine 2.7 mg/kg preceded by IP₃ 5.0 mg/kg, infusion through jugular vein
  number of petechiae: 1.0
Skin of the abdomen
  burn damage compared to control: significantly reduced
[1]; mediator Bradykinin
  % inhibition with IP₃ compared to control: 64%
[1]; mediator Histamine
  % inhibition with IP₃ compared to control: 61%
[1]; mediator PAF
  % inhibition with IP₃ compared to control: 64%

From patent EP0359256A2, “The use of inositoltrisphosphate in the treatment of tissue damage” (PERSTORP AB, priority 1988, dated 1990)
